The nature of series [1]: Pharmacokinetic study, oral capsule administration under fasted conditions in beagle dogs. Conditions: mean, male beagle dogs, equivalent metaxalone dosage of 21 mg/kg; for Tmax / AUC: plasma; for Cmax: plasma metaxalone by LC-MS/MS; for AUC: linear trapezoidal rule. The series is classed as in vivo. On the procedure: The study was designed to compare the pharmacokinetic profiles of the 1:0.5 metaxalone fumaric acid (prepared as described in Example 2.7) and 1:0.5 metaxalone succinic acid cocrystals (prepared as described in Example 4.7) with that of the crystalline metaxalone following oral administration under fasted conditions at 21 mg/kg dose level in beagle dogs. A crossover study was carried out using 5 male beagle dogs with a washout period of 5 days between each treatment. Prior to dosing, the dogs were fasted overnight, weighed and then this weight was used to load capsules with each test compound at an equivalent metaxalone dosage of 21 mg/kg. The capsules were orally administered to the dogs followed by about 10 mL of water. Food was provided 4 hours post-dose to all animals.
Blood samples were collected at pre-dose, 10, 20 and 30 minutes, and 1, 2, 3, 4, 6, 8, 12 and 24 hour post-dose (12 time points) following oral dose administration. Approximately 0.8 ml of whole blood was withdrawn from the cephalic vein and placed in labelled tubes containing K2 EDTA as anticoagulant ([…] of 200 mM K2 EDTA solution per mL of blood). Plasma was separated by centrifuging the whole blood at about 2500 g for 10 minutes at 4° C. Separated plasma was stored below −70° C. until analysis.
A fit for purpose LC-MS/MS method was used for the determination of the metaxalone concentrations in the plasma samples. Pharmacokinetic parameters from individual samples were calculated using the non-compartmental analysis tool of the WinNonlin® software (version 5.2). The area under the plasma concentration curve (AUC) was calculated using the linear trapezoidal rule. Peak plasma concentration (Cmax) and the time taken to reach the peak plasma concentration (Tmax) were the observed values.

For series [2] the following is noted: cited from earlier work.
For series [3] the following is noted: presence of food at the time of drug administration compared to fasted conditions; cited from earlier work.

Like-named read-outs stand apart in the source and are kept apart here.

As for `Cc1cc(C)cc(OCC2CNC(=O)O2)c1.Cc1cc(C)cc(OCC2CNC(=O)O2)c1.O=C(O)C=CC(=O)O` (stereo not shown) [1:0.5 Metaxalone Fumaric Acid Cocrystal], in series [1], the time of peak concentration (Tmax) – broadly, the time from dosing to the highest level – is recorded as 1.1 h; the Cmax – broadly, the peak of the concentration-time curve – is given as 3635.39 ng/mL; the exposure (AUC) (as a rule, the area under the concentration-time curve, a measure of exposure) is 5202.44 ng·h/mL.

As to `Cc1cc(C)cc(OCC2CNC(=O)O2)c1.Cc1cc(C)cc(OCC2CNC(=O)O2)c1.O=C(O)CCC(=O)O` (stereo not shown) [1:0.5 Metaxalone Succinic Acid Cocrystal], in series [1], the time to peak (Tmax) stood at 1.8 h, the Cmax stood at 2629.8 ng/mL and the area under the curve (AUC) amounted to 4134.85 ng·h/mL.

For the compound `Cc1cc(C)cc(OCC2CNC(=O)O2)c1` (stereo not shown) [Metaxalone, 5-[(3,5-dimethylphenoxy)methyl]-2-oxazolidinone], the “Solubility in 96% ethanol” value in series [2] (96% ethanol) is “soluble”. The Solubility in chloroform result in series [2] (chloroform) is listed as “freely soluble”. Further, the Solubility in methanol entry in series [2] (methanol) is “soluble”. For the same compound, the Solubility in water result in series [2] (water) is “practically insoluble”. For the same compound, the maximum concentration (Cmax) in series [1] (dog, read-out: Cmax) was 1910 ng/mL. Besides, the AUC in series [1] (dog, read-out: AUC) was 2380 ng·h/mL. In addition, the Tmax in series [1] (dog, read-out: Tmax) is 0.9 h. Besides, in series [3], the “Increase of AUC(inf) by food” value is 115.4%, the “Increase of AUC(last) by food” value is 123.5% and the “Increase of C(max) by food” value is given as 177.5%.
